Patent publication US12152060B2, “Interleukin-2 variants and methods of uses thereof” (Cugene Inc, priority 2018, dated 2024)

Key:
Treg cells in blood = assay: Pharmacodynamics study in mice following repeated administration (Q3D); format: in vivo, mouse; conditions: 0.3 mg/kg s.c. Q3D x3; compared to P-0531 and Benchmark-1
Experimental: Female Balb/C mice (7-week old) were acclimated in house for 5-7 days before the study. Vehicle (PBS), 0.3 mg/kg of P-0511, P-0512, P-0531, or Benchmark-1 compound were subcutaneously administered to mice (n=5/group) on days 0, 3, and 6. On days 3 and 9, three days after the first injection and multiple (3) injections, respectively, peripheral blood was collected. Based on earlier in vivo experiments, Treg cell activation, proliferation, and expansion were expected to peak on day 3, and thus three days post injection was selected for data collection and analysis. Changes in blood lymphocyte activation, proliferation, and expansion were measured by flow cytometry. P-0531 is the S125I equivalent of the wild type IL-2 fusion protein. The Benchmark-1 contains V91K mutation.

[1] = molecular target: T1, non-covalent complex of IL-2Rβ-ECD (NP_000869) and γc-ECD (NP_000197) (Homo sapiens, UniProt P14784+P31785); assay: ELISA binding to IL-2Rβ and γc complex
T1 construct: non-covalent complex of IL-2Rβ-ECD (NP_000869) and γc-ECD (NP_000197)
T1 sequence (P14784 27-240 limits assumed): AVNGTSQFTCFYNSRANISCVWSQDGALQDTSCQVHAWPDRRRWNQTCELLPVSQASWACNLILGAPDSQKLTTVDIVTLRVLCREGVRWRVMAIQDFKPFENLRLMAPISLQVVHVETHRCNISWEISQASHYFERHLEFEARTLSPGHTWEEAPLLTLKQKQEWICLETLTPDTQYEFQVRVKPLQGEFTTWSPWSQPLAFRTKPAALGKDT
T1 sequence (P31785 23-262 limits assumed): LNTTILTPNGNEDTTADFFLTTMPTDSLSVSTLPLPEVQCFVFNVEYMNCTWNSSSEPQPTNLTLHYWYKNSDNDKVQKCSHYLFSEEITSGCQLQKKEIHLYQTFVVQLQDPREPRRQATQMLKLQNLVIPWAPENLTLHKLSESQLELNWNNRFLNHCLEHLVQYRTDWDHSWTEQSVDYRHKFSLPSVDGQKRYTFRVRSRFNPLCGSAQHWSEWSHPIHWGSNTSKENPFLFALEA
Experimental: Briefly, non-covalent complex of IL-2Rβ-ECD (NP_000869) and γc-ECD (NP_000197) through heterodimeric Fc chains was coated onto the wells of Nunc Maxisorp 96-well microplates at 2 μg/well. After overnight incubation at 4° C. and blocking with superblock (ThermoFisher), 3-fold serial dilutions of IL-2 Fc fusion proteins starting at either 100 or 270 nM were added to each well at 100 μl/well. Following a one-hour incubation at room temperature, biotin mouse anti-human IL-2 Ab (BD BioSciences) at 1 μg/ml was added to each well followed by incubation with HRP-Avidin (ThermoFisher) at 1 μg/ml for 1 hour. Wells were thoroughly aspirated and washed three times with PBS/0.05% Tween-20 following each step. Finally, 100 μl TMB substrate was added to each well; the plate was developed at room temperature in the dark for 10 minutes, and 100 μl/well of stop solution (2N Sulfuric acid, Ricca Chemical) was added. Absorbance was determined at 450 nm; curves were fit using Prism software (GraphPad) and illustrated in FIG. 11E.

[2] = system: regulatory T cells (CD4+CD25+FoxP3+ T cells), effector T cells and NK cells; assay: Treg versus effector T and NK cell proliferation and expansion in mice after a single subcutaneous injection; format: in vivo, mouse; conditions: 0.3 mg/kg s.c. single dose, C57/BL6 mice
Experimental: IL-2 variant Fc fusion proteins were administered to mice and their ability to preferentially proliferate and expand regulatory T cells (CD4+CD25+FoxP3+ T cells) over effector T cells and NK cells were determined in vivo.
Female C57/BL6 mice (7-week old) were received from Charles River Laboratory and acclimated in house for at least 7 days before the study. Vehicle (PBS), 0.3 mg/kg of each test compounds, or IL-2 benchmark compounds were subcutaneously administered to mice on day 0. Peripheral blood samples were collected into heparin-treated tubes on days 3, 5 and 7 post-treatment. Each group contained 6 mice and baseline blood was collected 2 days prior to the treatment (day-2). After red blood cell lysis, total viable mononuclear blood cells were counted by trypan blue dead cell exclusion method and proceeded to intracellular staining for immune cell phenotype and Ki67 proliferation markers using flow cytometric analysis. Cells were stained separately with two panels of antibodies as listed: 1) anti-mouse Foxp3-FITC, Ki67-PE, anti-mouse CD25-APC and anti-mouse CD4-Percpcy5.5 (1:50 dilution) for CD4+T-regulatory cells (Treg); 2) anti-mouse CD3-FITC, Ki67-PE, anti-mouse CD335-APC and anti-mouse CD8-Percpcy5.5 (1:50 dilution) for CD8+T and NK cells.

[3] = system: delayed-type hypersensitivity (DTH) mouse model; assay: KLH-induced delayed-type hypersensitivity (DTH) mouse model, ear thickness; format: in vivo; conditions: for inhibition of ear inflammation (KLH-induced DTH), separate study: Q5D
Experimental: The ability of Treg cells induced by IL-2 variants to suppress T cell antigen-driven inflammation in vivo was assessed in a model of delayed-type hypersensitivity (DTH). Female Balb/C mice (7-week old) were acclimated in house for 7 days and randomized into groups. Subcutaneous administration of vehicle (PBS), P-0511 at either 0.1 mg/kg or 0.3 mg/kg was initiated on day-2 and was given either once every 3 days (Q3D) for three injections or once every 5 days (Q5D) for two injections. Mice were then sensitized with a subcutaneous administration of 100 μg keyhole limpet hemocyanin (KLH) in 200 μl saline on day 0. For Q3D dosing, two more subcutaneous injections of PBS or P-0511 (0.1 or 0.3 mg/kg) were administered on days 1 and 4; for Q5D dosing, one additional s.c. injection of PBS, 0.1 or 0.3 mg/kg P-0511 was administered on day 3. Mice received an intradermal challenge of KLH (5 μg in 10 μl saline) in right ear on day 5. Right ear thickness was measured using a caliper on day 5 prior KLH challenge and daily from day 6 to day 8 corresponding to 24 h, 48h, and 72 h post KLH challenge. One group of mice also received 5 mg/kg daily i.p. treatment of dexamethasone from day 5 to day 8 as a positive control.
Kinetics of the DTH response using the change in ear thickness relative to baseline values (Δ ear thickness) at various times after KLH challenge was illustrated in FIG. 23.
In a separate study, dose-dependent response of P-0511 (0.1, 0.3 and 1 mg/kg, Q5D) on suppression of KLH-induced DTH was determined and compared with Benchmark-1 (0.3 mg/kg, Q5D).

In the case of “P-0511: Fc fusion protein of IL-2 variant L19H/S125I/Q126E; SEQ ID NO: 198”, the “Treg cell counts, fold changes relative to PBS and Treg/Tconv ratio” value (Treg cells in blood) is reported as “superior capabilities to sustain Treg pool”, the “EC50, binding to IL-2Rβ and γc complex (ELISA)” value [1] is reported as “did not show appreciable binding” and the “Ki67 stimulation on CD8 T cells and NK cells” value [2] is reported as “mild Ki67 stimulation”. For the same substance, the “expansion of CD4+ Tconv cells, CD8 T cells or NK cells” value [2] was “No significant expansion”, the “Treg cell proliferation and expansion (Ki67 positive Treg, % Treg over CD4+ T cells or lymphocytes)” value ([2]; days 3, 5, 7) was “stronger in vivo efficacy” and the “suppression of antigen-driven inflammation (Δ ear thickness)” value ([3]; 0.1 mg/kg s.c., Q3D and Q5D) was “did not reach statistical significance”. The “inhibition of ear inflammation (KLH-induced DTH), separate study” value (“inhibition of ear inflammation” for short) ([3]; 0.1 mg/kg) was “mild”, the “suppression of antigen-driven inflammation (Δ ear thickness)” value ([3]; 0.3 mg/kg s.c., Q3D or Q5D, all time points post KLH challenge) was “evident” and the “inhibition of ear inflammation” value ([3]; 0.3 mg/kg) was “Intermediate”. The “inhibition of ear inflammation” value ([3]; 1 mg/kg) was “strong resistance to KLH-induced DTH”.
